Patent US6362369B1, “Phthalic acid diamide derivatives fluorine-containing aniline compounds as starting material, agricultural and horticultural insecticides, and a method for application of the insecticides” (Nihon Nohyaku Co., Ltd., priority 1997, dated 2002)

Legend:
Type in all cases: in vivo
[1] = system: diamondback moth (Plutella xylostella); assay: Insecticidal effect on diamondback moth (Test Example 1); details: mortality judged according to the criterion shown in Test Example 1
Method in brief: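 Read-out was mortality from hatched-insect counts taken 6 days after the egg-bearing cabbage seedling was immersed, graded by set criteria. Seedlings were air-dried and kept at 25° C after treatment. Groups of 10 insects, in triplicate.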

[2] = system: common cutworm (Spodoptera Litura); assay: Insecticidal effect on common cutworm (Test Example 2); details: 500 ppm, cabbage leaf dip, second-instar larvae, eight days after inoculation, 25° C.
Method in brief: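 Insecticidal effect was rated from percent mortality of second-instar larvae exposed to air-dried treatment at 25° C for 8 days.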

[3] = system: rice leafroller (Cnaphalocrocis medinalis); assay: Insecticidal effect on rice leafroller (Test Example 3); details: 500 ppm, rice lamina dip, third-instar larvae, four days after inoculation, 25° C., humidity 70%
Method in brief: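 Groups of 10 third-instar larvae, in triplicate, are placed on air-dried lamina resting on wet filter paper. Incubation runs four days at 25° C with 70% humidity before survivors and dead are tallied.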

SMILES	Insecticidal effect on diamondback moth (Test Example 1), judged grade [1]	Insecticidal effect on common cutworm (Test Example 2), judged grade [2]	Insecticidal effect on rice leafroller (Test Example 3), judged grade [3]
Cc1cc(OC(F)(F)Br)ccc1NC(=O)c1cccc(F)c1C(=O)NC(C)C [compound 511]	A (100)	A (100)	A (100)
Cc1cc(OC(F)(F)C(F)F)ccc1NC(=O)c1cccc(F)c1C(=O)NC(C)C [compound 512]	A (100)	A (100)	A (100)
Cc1cc(OC(F)(F)C(F)Cl)ccc1NC(=O)c1cccc(F)c1C(=O)NC(C)C (stereo not drawn) [compound 513]	A (100)	A (100)	A (100)
Cc1cc(OC(F)(F)C(F)C(F)(F)F)ccc1NC(=O)c1cccc(F)c1C(=O)NC(C)C (stereo not drawn) [compound 514]	A (100)	A (100)	A (100)
Cc1cc(OC(F)(F)C(F)(Br)C(F)(F)F)ccc1NC(=O)c1cccc(F)c1C(=O)NC(C)C (stereo not drawn) [compound 516]	A (100)	A (100)	A (100)
Cc1cc(OC(F)F)c(Cl)cc1NC(=O)c1cccc(F)c1C(=O)NC(C)C [compound 517]	A (100)	A (100)	A (100)
Cc1cc(Oc2cccc(C(F)(F)F)c2)ccc1NC(=O)c1cccc(F)c1C(=O)NC(C)C [compound 519]	A (100)	A (100)	A (100)
Cc1cc(Oc2ccc(C(F)(F)F)cc2Cl)ccc1NC(=O)c1cccc(F)c1C(=O)NC(C)C [compound 521]	A (100)	A (100)	A (100)
Cc1cc(Sc2ccc(Cl)cc2)ccc1NC(=O)c1cccc(F)c1C(=O)NC(C)C [compound 522]	A (100)	D (79-50)	A (100)
Cc1cc(Oc2ccc(C(F)(F)F)cn2)ccc1NC(=O)c1cccc(F)c1C(=O)NC(C)C [compound 523]	A (100)	A (100)	A (100)
Cc1cc(Oc2ncc(C(F)(F)F)cc2Cl)ccc1NC(=O)c1cccc(F)c1C(=O)NC(C)C [compound 524]	A (100)	A (100)	A (100)
CC(C)NC(=O)c1c(F)cccc1C(=O)Nc1ccc(OC(F)F)cc1C(F)(F)F [compound 527]	A (100)	A (100)	A (100)
Cc1cc(Cl)ccc1NC(=O)c1ccc(F)cc1C(=O)NC(C)C [compound 529]	A (100)	D (79-50)	A (100)
Cc1cc(C(F)(F)C(F)(F)C(F)(F)F)ccc1NC(=O)c1cc(F)ccc1C(=O)NC(C)C [compound 533]	A (100)	A (100)	A (100)
CC(C)NC(=O)c1cccc(F)c1C(=O)Nc1ccc(OC(F)(F)C(F)OC(F)(F)C(F)(F)C(F)(F)F)cc1 (stereo not drawn) [compound 538]	A (100)	A (100)	A (100)
Cc1cc(I)ccc1NC(=O)c1c(F)cccc1C(=O)NC(C)C [compound 547]	A (100)	A (100)	D (79-50)
Cc1c(F)cccc1NC(=O)c1c(F)cccc1C(=O)NC(C)C [compound 548]	A (100)	A (100)	A (100)

SMILES	Insecticidal effect on diamondback moth (Test Example 1), judged grade [1]	Insecticidal effect on common cutworm (Test Example 2), judged grade [2]	Insecticidal effect on rice leafroller (Test Example 3), judged grade [3]
Cc1ccc(F)cc1NC(=O)c1c(F)cccc1C(=O)NC(C)C [compound 549]	A (100)	A (100)	D (79-50)
CC(C)NC(=O)c1cccc(F)c1C(=O)Nc1ccc(C(F)(F)F)cc1Cl [compound 550]	A (100)	C (89-80)	A (100)
Cc1cc(OC(F)(F)C(F)(Cl)Cl)ccc1NC(=O)c1c(F)cccc1C(=O)NC(C)C [compound 553]	A (100)	C (89-80)	A (100)
Cc1cc(C(F)(F)C(F)(F)C(F)(F)C(F)(F)F)ccc1NC(=O)c1c(F)cccc1C(=O)NC(C)C [compound 557]	A (100)	C (89-80)	B (99-90)
Cc1c(NC(=O)c2c(F)cccc2C(=O)NC(C)C)cccc1OC(F)F [compound 558]	A (100)	A (100)	A (100)
CC(C)NC(=O)c1cccc(F)c1C(=O)Nc1ccc(C(F)(C(F)(F)F)C(F)(F)F)cc1Cl [compound 561]	A (100)	C (89-80)	A (100)
Cc1cc(OC(F)(F)C(F)Cl)ccc1NC(=O)c1c(F)cccc1C(=O)NC(C)C (stereo not drawn) [compound 567]	A (100)	D (79-50)	D (79-50)
Cc1cc(OC(F)(F)C(F)C(F)(F)F)ccc1NC(=O)c1c(F)cccc1C(=O)NC(C)C (stereo not drawn) [compound 568]	A (100)	C (89-80)	A (100)
Cc1cc(OC(F)(F)C(F)(Br)C(F)(F)F)ccc1NC(=O)c1c(F)cccc1C(=O)NC(C)C (stereo not drawn) [compound 569]	A (100)	A (100)	A (100)
CC(C)NC(=O)c1cccc(F)c1C(=O)Nc1ccc(OC(F)F)cc1C(F)(F)F [compound 579]	A (100)	A (100)	A (100)
Cc1cc(OC(F)F)ccc1NC(=O)c1c(F)ccc(F)c1C(=O)NC(C)C [compound 581]	A (100)	B (99-90)	A (100)
CC(C)NC(=O)c1c(C(=O)Nc2ccc(I)cc2)cccc1[N+](=O)[O-] [compound 595]	A (100)	A (100)	A (100)
Cc1ccccc1NC(=O)c1cccc([N+](=O)[O-])c1C(=O)NC(C)C [compound 599]	A (100)	D (79-50)	A (100)
CC(C)NC(=O)c1c(C(=O)Nc2ccc(C(F)(F)F)cc2)cccc1[N+](=O)[O-] [compound 606]	A (100)	D (79-50)	A (100)
CC(C)NC(=O)c1c(C(=O)Nc2cccc(C(F)(F)F)c2)cccc1[N+](=O)[O-] [compound 607]	A (100)	A (100)	A (100)
CC(C)NC(=O)c1c(C(=O)Nc2ccc(C(F)(F)C(F)(F)C(F)(F)F)cc2)cccc1[N+](=O)[O-] [compound 609]	A (100)	B (99-90)	A (100)
CC(C)NC(=O)c1c(C(=O)Nc2ccc(C(F)(C(F)(F)F)C(F)(F)F)cc2)cccc1[N+](=O)[O-] [compound 610]	A (100)	A (100)	C (89-80)
